Test results from the NIST ThermoML archive (doi:10.1021/acs.jced.9b00607).
Numbers after ± are expanded uncertainties.

How the values were obtained:
[1] = wn = mass fraction of the nth substance listed; settings: 102 kPa, Liquid, w2 = 0; for viscosity: Falling or rolling sphere viscometry; for mass density: Vibrating tube method
[2] = 102 kPa, Liquid; for viscosity: Falling or rolling sphere viscometry; for mass density: Vibrating tube method

OCCO [1,2-ethanediol] + CN(CCO)CCO
[1]
Settings	mass density [kg/m3]	viscosity [mPa·s]
283.15 K	1120 ± 0.2	34.07 ± 4.1
298.15 K	–	17.27 ± 1.1
313.15 K	1099.1 ± 0.3	9.69 ± 1.1
323.15 K	1091.6 ± 0.1	6.81 ± 0.36
333.15 K	1085 ± 0.1	5.28 ± 0.47
343.15 K	1077.6 ± 0.1	4.06 ± 0.46
353.15 K	1070.1 ± 0.1	3.21 ± 0.31

O [water]
[2]
Settings	mass density [kg/m3]	viscosity [mPa·s]
283.15 K	999.9 ± 0.1	1.32 ± 0.01
298.15 K	997.2 ± 0.1	0.91 ± 0.01
313.15 K	992.3 ± 0.1	0.67 ± 0.01
323.15 K	988.3 ± 0.1	0.57 ± 0.01
333.15 K	983.5 ± 0.1	–
343.15 K	978.1 ± 0.1	–
353.15 K	972.3 ± 0.1	–

CN(CCO)CCO [N-methyldiethanolamine]
[2]
Settings	mass density [kg/m3]	viscosity [mPa·s]
283.15 K	1048 ± 0.3	198.15 ± 9.4
298.15 K	1036.8 ± 0.3	74.87 ± 1.5
313.15 K	1025.3 ± 0.3	35.05 ± 1.1
323.15 K	1017.7 ± 0.2	21.96 ± 0.43
333.15 K	1010 ± 0.2	14.83 ± 0.49
343.15 K	1002.2 ± 0.2	10.29 ± 0.54
353.15 K	994.5 ± 0.2	7.4 ± 0.32

OCCO [1,2-ethanediol]
[2]
Settings	mass density [kg/m3]	viscosity [mPa·s]
283.15 K	1120 ± 0.2	34.07 ± 4.1
298.15 K	–	17.27 ± 1.1
313.15 K	1099.1 ± 0.3	9.69 ± 1.1
323.15 K	1091.6 ± 0.1	6.81 ± 0.36
333.15 K	1085 ± 0.1	5.28 ± 0.47
343.15 K	1077.6 ± 0.1	4.06 ± 0.46
353.15 K	1070.1 ± 0.1	3.21 ± 0.31
